Assay results published in doi:10.1101/2024.06.03.597093v3 (biorxiv, 2024).
Read-outs that look alike come from different tables or passages of the source.

What was measured:
β2AR-NlucC (β2AR) [1] = target: T1, β2AR-NlucC (β2AR) (Homo sapiens, UniProt P07550); assay: cell-based; conditions: HEK-293T, read-out: Mini-G Protein Recruitment / Emax (%) ± SEM
β2AR-NlucC (CRISPR) = β2AR-NlucC (CRISPR) (Homo sapiens, UniProt P07550); assay: cell-based; conditions: HEK-293T, read-out: CRISPR_receptor Emax
β2AR-NlucC (β2AR) [2] = target: T1, β2AR-NlucC (β2AR); assay: cell-based; conditions: HEK-293T, read-out: CRISPR_mGs Emax
β1AR-NlucC (CRISPR) = β1AR-NlucC (CRISPR) (Homo sapiens, UniProt P08588); conditions: CRISPR receptor; relative to adrenaline; agonist
Chain of β1AR-NlucC (CRISPR) (P08588 whole entry): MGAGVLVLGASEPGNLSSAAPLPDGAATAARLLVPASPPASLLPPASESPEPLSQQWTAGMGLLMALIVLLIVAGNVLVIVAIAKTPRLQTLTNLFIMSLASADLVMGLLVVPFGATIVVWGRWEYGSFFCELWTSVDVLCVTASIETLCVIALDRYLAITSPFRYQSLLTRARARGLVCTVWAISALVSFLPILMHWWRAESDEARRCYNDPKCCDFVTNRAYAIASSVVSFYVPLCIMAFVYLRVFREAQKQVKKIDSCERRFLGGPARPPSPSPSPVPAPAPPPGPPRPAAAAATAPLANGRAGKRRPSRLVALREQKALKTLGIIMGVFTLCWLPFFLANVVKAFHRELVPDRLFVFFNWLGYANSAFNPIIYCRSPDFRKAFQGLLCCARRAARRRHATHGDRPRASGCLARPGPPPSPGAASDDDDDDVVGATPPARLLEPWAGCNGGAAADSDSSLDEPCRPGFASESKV

T1 sequence (P07550 whole entry): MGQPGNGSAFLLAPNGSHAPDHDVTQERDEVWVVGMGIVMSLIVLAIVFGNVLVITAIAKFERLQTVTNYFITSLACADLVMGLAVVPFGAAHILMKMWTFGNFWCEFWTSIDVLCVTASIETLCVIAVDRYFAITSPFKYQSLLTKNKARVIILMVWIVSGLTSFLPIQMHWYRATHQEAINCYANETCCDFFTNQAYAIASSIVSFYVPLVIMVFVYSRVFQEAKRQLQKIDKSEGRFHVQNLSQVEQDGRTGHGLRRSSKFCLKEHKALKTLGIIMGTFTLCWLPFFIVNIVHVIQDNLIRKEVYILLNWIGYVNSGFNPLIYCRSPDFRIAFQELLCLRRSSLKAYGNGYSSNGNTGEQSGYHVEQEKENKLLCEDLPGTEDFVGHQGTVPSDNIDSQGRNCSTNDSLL
Chain of β2AR-NlucC (CRISPR) (P07550 whole entry): as above

## NC[C@H](O)c1ccc(O)c(O)c1 [noradrenaline]
β2AR-NlucC (β2AR) [1]
  Emax: 85 ± 2%
β2AR-NlucC (CRISPR)
  Emax: 61 ± 7%
β2AR-NlucC (β2AR) [2]
  Emax: 51 ± 4%
β1AR-NlucC (CRISPR)
  CRISPR_receptor Emax: 109 ± 7%
